The values below come from US20250257041A1, “INDUCERS OF INTEGRATED STRESS RESPONSE TO TREAT CANCER” (The Board of Regents of The University of Texas System, priority 2022, published 2025).

The test system of the first experiment is HCT116 WT. The experiment in a line: Proliferation of HCT116 colorectal cell line, Cell TiterGlo. In kind it is cell-based, human. The settings on record: Homo sapiens, HCT-116, wild type HCT116; 10-point dose response in triplicate; multiple values = separate independent experiments; read-out: HCT116 IC50 (uM) HCT116 WT. The essentials:
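Cell viability by CellTiter-Glo in parental HCT116, in a GCN2-knockout line, and in parental cells co-treated with ISRIB. IC50 from triplicate 10-point titrations; repeated values come from separate runs.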
On the technique in general: Cellular ATP, detected with luciferase, serves as a proxy for viable cell number.
For `Cc1ncccc1C(=O)Nc1ccc(-c2cc(N(C)C(=O)c3ccccc3)n(C)n2)cc1` [SW394880-1, 2-methyl-N-(4-(1-methyl-5-(N-methylbenzamido)-1H-pyrazol-3-yl)phenyl)nicotinamide], the IC50 (commonly the midpoint of a concentration-inhibition curve) was 1.04 µM.
On the same count and under the same terms, the value for `Cn1nc(-c2ccc(NC(=O)N3CCOCC3)cc2)cc1NC(=O)c1ccccc1` [SW394892-1, N-(4-(5-benzamido-1-methyl-1H-pyrazol-3-yl)phenyl)morpholine-4-carboxamide] was over 5 µM; that for `Cn1nc(-c2ccc(NC(=O)N3CCCC3)cc2)cc1NC(=O)c1ccccc1` [SW394893-1, N-(4-(5-benzamido-1-methyl-1H-pyrazol-3-yl)phenyl)pyrrolidine-1-carboxamide] was over 5 µM.
As to `CC(=O)Nc1cccc(C(=O)Nc2cc(-c3ccc(NC(=O)c4ccccc4Cl)cc3)nn2C)c1` [SW394894-1, N-(4-(5-(3-acetamidobenzamido)-1-methyl-1H-pyrazol-3-yl)phenyl)-2-chlorobenzamide], the IC50 was determined as 0.01 µM.
On the same count and under the same terms, the value for `Cn1nc(-c2ccc(NC(=O)c3ccccc3Cl)cc2)cc1NC(=O)c1cccc(NS(C)(=O)=O)c1` [SW394895-1, 2-chloro-N-(4-(1-methyl-5-(3-(methylsulfonamido)benzamido)-1H-pyrazol-3-yl)phenyl)benzamide] was 0.03 µM; that for `Cn1nc(-c2ccc(NC(=O)c3ccccc3Cl)cc2)cc1NC(=O)c1cccc(CNC(=O)OC(C)(C)C)c1` [SW394896-1, tert-butyl (3-((3-(4-(2-chlorobenzamido)phenyl)-1-methyl-1H-pyrazol-5-yl)carbamoyl)benzyl)carbamate] was 0.05 µM; that for `Cn1nc(-c2ccc(NC(=O)c3ccccc3Cl)cc2)cc1NC(=O)c1cccc(NC(=O)OC(C)(C)C)c1` [SW394897-1, tert-butyl (3-((3-(4-(2-chlorobenzamido)phenyl)-1-methyl-1H-pyrazol-5-yl)carbamoyl)phenyl)carbamate] was 0.02 µM.
Same read-out and setting: for `Cn1nc(-c2ccc(NC(=O)c3ccccc3Cl)cc2)cc1NC(=O)c1cccc(CN)c1` [SW394966, N-(4-(5-(3-(aminomethyl)benzamido)-1-methyl-1H-pyrazol-3-yl)phenyl)-2-chlorobenzamide] the value was 0.055 µM; for `Cn1nc(-c2ccc(NC(=O)c3cc(NC(=O)OC(C)(C)C)ccc3Cl)cc2)cc1NC(=O)c1ccccc1` [SW394967, tert-butyl (3-((4-(5-benzamido-1-methyl-1H-pyrazol-3-yl)phenyl)carbamoyl)-4-chlorophenyl)carbamate], 0.541 µM.
Consider `Cn1nc(-c2ccc(NC(=O)c3ccccc3Cl)cc2)cc1NC(=O)c1cccc(OCCNC(=O)OC(C)(C)C)c1` [SW394968, tert-butyl (2-(3-((3-(4-(2-chlorobenzamido)phenyl)-1-methyl-1H-pyrazol-5-yl)carbamoyl)phenoxy)ethyl)carbamate], for which the IC50 was found to be 0.062 µM.
The same measure, in the same setting: for `Cn1nc(-c2ccc(NC(=O)c3ccccc3Cl)cc2)cc1NC(=O)C1CC2CCC1CC2` (centres unmarked) [SW394969, N-(3-(4-(2-chlorobenzamido)phenyl)-1-methyl-1H-pyrazol-5-yl)bicyclo[2.2.2]octane-2-carboxamide] the value was 0.03 µM; for `Cn1nc(-c2ccc(NC(=O)c3ccccc3Cl)cc2)cc1NC(=O)c1cccc(OCCN)c1` [SW394970, N-(4-(5-(3-(2-aminoethoxy)benzamido)-1-methyl-1H-pyrazol-3-yl)phenyl)-2-chlorobenzamide], 0.05 µM; for `Cn1nc(-c2ccc(NC(=O)c3ccccc3Cl)cc2)cc1NC(=O)c1cccc(OCCNc2ccc([N+](=O)[O-])c3nonc23)c1` [SW394971, 2-Chloro-N-(4-(1-methyl-5-(3-(2-((7-nitrobenzo[c][1,2,5]oxadiazol-4-yl)amino)ethoxy)benz-amido)-1H-pyrazol-3-yl)phenyl)benzamide], 0.02 µM.

Still in this experiment, the particulars now being: wild type HCT116; 10-point dose response in triplicate; multiple values = separate independent experiments; read-out: HCT116 IC50 (uM) HCT116 WT.
For `Cn1nc(-c2ccc(NC(=O)N3CCCCC3)cc2)cc1NC(=O)c1ccccc1` [SW394891-1, N-(4-(5-benzamido-1-methyl-1H-pyrazol-3-yl)phenyl)piperidine-1-carboxamide], the IC50 was 0.24 µM.
